Measurements as given in article PMC8924211 (Nature Communications, 2022).
Residue numbers refer to the chain shown, from its start.

What was measured:
Assay in all cases: Calcium assay, HEK293/Gα16 cells, GAL2R mutants
Assay type in all cases: cell-based
GAL2R mutants [1] = biological target: T1, GAL2R mutants (Homo sapiens, UniProt O43603, H102A); settings: GAL2R H1023.29A
T1 construct: expressed in transfected cells; host or cells: HEK293
T1 sequence (O43603 1-387 H102A): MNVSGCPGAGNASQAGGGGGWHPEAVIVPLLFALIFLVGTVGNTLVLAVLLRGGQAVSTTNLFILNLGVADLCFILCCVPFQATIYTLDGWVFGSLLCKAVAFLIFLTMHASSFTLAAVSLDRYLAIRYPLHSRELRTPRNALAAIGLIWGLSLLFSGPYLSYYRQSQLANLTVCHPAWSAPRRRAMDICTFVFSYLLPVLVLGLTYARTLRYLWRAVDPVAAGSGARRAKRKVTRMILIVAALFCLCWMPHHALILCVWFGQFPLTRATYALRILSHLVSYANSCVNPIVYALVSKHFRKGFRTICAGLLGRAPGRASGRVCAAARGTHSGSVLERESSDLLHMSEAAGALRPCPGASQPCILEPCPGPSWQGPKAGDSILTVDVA

GAL2R mutants [2] = biological target: T2, GAL2R mutants (Homo sapiens, UniProt O43603, I256A); settings: GAL2R I2566.55A
T2 construct: expressed in transfected cells; host or cells: HEK293
T2 sequence (O43603 1-387 I256A): T1 sequence (O43603 1-387 H102A) with A102H, I256A

GAL2R mutants [3] = biological target: T3, GAL2R mutants (Homo sapiens, UniProt O43603, L266A); settings: GAL2R L266ECL3A
T3 construct: expressed in transfected cells; host or cells: HEK293
T3 sequence (O43603 1-387 L266A): T1 sequence (O43603 1-387 H102A) with A102H, L266A

GAL2R mutants [4] = biological target: T4, GAL2R mutants (Homo sapiens, UniProt O43603, T267A); settings: GAL2R T2677.28A
T4 construct: expressed in transfected cells; host or cells: HEK293
T4 sequence (O43603 1-387 T267A): T1 sequence (O43603 1-387 H102A) with A102H, T267A

GAL2R mutants [5] = biological target: T5, GAL2R mutants (Homo sapiens, UniProt O43603, V259A); settings: GAL2R V2596.58A
T5 construct: expressed in transfected cells; host or cells: HEK293
T5 sequence (O43603 1-387 V259A): T1 sequence (O43603 1-387 H102A) with A102H, V259A

[6] = response of 100 μM spexin compared to WT, mean ± S.E.M.

Substance: spexin
- Emax (GAL2R mutants [1]; response of 100 μM spexin compared to WT): NR (NR, no response, refers to response < 10% compared to WT receptor (spexin at 100 μM))
- Emax (GAL2R mutants [1]; spexin, replicate 1): no response
- Emax (GAL2R mutants [1]; spexin, replicate 2): no response
- Emax (GAL2R mutants [1]; spexin, replicate 3): no response
- Emax (GAL2R mutants [2]; [6]): 67.24±0.5%
- Emax (GAL2R mutants [2]; spexin, replicate 1): 66.4324%
- EC50 (GAL2R mutants [2]; spexin, replicate 2): 437.9 nM
- Emax (GAL2R mutants [2]; spexin, replicate 2): 67.278%
- EC50 (GAL2R mutants [2]; spexin, replicate 3): 924.3 nM
- Emax (GAL2R mutants [2]; spexin, replicate 3): 68.0243%
- Emax (GAL2R mutants [3]; [6]): 103.14±6.2%
- EC50 (GAL2R mutants [3]; spexin, replicate 1): 25.14 µM
- Emax (GAL2R mutants [3]; spexin, replicate 1): 98.5714%
- EC50 (GAL2R mutants [3]; spexin, replicate 2): 15.28 µM
- Emax (GAL2R mutants [3]; spexin, replicate 2): 95.5224%
- EC50 (GAL2R mutants [3]; spexin, replicate 3): 11.99 µM
- Emax (GAL2R mutants [3]; spexin, replicate 3): 115.328%
- Emax (GAL2R mutants [4]; [6]): 19.9±3.4%
- EC50 (GAL2R mutants [4]; spexin, replicate 1): 0.8339 nM
- Emax (GAL2R mutants [4]; spexin, replicate 1): 26.5588%
- EC50 (GAL2R mutants [4]; spexin, replicate 2): 10490 nM
- Emax (GAL2R mutants [4]; spexin, replicate 2): 17.6424%
- EC50 (GAL2R mutants [4]; spexin, replicate 3): 1506 nM
- Emax (GAL2R mutants [4]; spexin, replicate 3): 15.5083%
- Emax (GAL2R mutants [5]; [6]): 68.4±5.7%
- EC50 (GAL2R mutants [5]; spexin, replicate 1): 1.328 µM
- Emax (GAL2R mutants [5]; spexin, replicate 1): 60.401%
- EC50 (GAL2R mutants [5]; spexin, replicate 2): 6.622 µM
- Emax (GAL2R mutants [5]; spexin, replicate 2): 65.4165%
- EC50 (GAL2R mutants [5]; spexin, replicate 3): 6.153 µM
- Emax (GAL2R mutants [5]; spexin, replicate 3): 79.3756%
